Results taken from doi:10.1101/2024.06.07.597859v1 (biorxiv, 2024).

Target: T1, PfTSEN1 (Plasmodium falciparum, UniProt A0A144A1E9)
T1 sequence (A0A144A1E9 1-220): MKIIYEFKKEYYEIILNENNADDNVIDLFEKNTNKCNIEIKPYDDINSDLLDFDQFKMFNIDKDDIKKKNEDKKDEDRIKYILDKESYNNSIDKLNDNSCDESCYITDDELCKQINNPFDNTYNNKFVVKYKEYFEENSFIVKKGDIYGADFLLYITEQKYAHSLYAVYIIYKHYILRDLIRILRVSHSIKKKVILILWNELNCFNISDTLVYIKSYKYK
Assay: microscale thermophoresis
Format: binding

SMILES: NCCCn1ccc2c1C(=O)c1cccnc1C2=O [TSENi, 1-(3-aminopropyl)-1H-pyrrolo[2,3-f]quinoline-4,9-dione]
- Kd: 945 nM
